Data as given in patent US20060229299A1, “5ht2c Receptor antagonists in the treatment of schizophrenia” (priority 2003, published 2006).
Read-outs that look alike come from different tables or passages of the source.

How the values were obtained:
5-HT2A receptor = 5-HT2A receptor (Homo sapiens, UniProt P28223); settings: Table 3; expressed as pKi or pKd values; known affinities; cited from earlier work
D2 receptor = D2 receptor (Homo sapiens, UniProt P14416); settings: Table 3; expressed as pKi or pKd values; known affinities; cited from earlier work
[1] = tested on: 5-HT2C receptor relative to 5-HT2A and D2 receptors; assay: Relative 5-HT2C affinity (formula I, sum of 5-HT2C/5-HT2A and 5-HT2C/D2 affinity ratios)
α1-adrenoceptor [2] = settings: human, expressed as KD; cited from earlier work
[3] = design: key: 1-high; 2-medium; 3-low probability; settings: Table 4A; grading of probability from literature reports; cited from earlier work
5-HT2C receptor [4] = target: T1, 5-HT2C receptor (Homo sapiens, UniProt P28335); settings: Table 3; expressed as pKi or pKd values; known affinities; cited from earlier work
T1 sequence (P28335 33-458): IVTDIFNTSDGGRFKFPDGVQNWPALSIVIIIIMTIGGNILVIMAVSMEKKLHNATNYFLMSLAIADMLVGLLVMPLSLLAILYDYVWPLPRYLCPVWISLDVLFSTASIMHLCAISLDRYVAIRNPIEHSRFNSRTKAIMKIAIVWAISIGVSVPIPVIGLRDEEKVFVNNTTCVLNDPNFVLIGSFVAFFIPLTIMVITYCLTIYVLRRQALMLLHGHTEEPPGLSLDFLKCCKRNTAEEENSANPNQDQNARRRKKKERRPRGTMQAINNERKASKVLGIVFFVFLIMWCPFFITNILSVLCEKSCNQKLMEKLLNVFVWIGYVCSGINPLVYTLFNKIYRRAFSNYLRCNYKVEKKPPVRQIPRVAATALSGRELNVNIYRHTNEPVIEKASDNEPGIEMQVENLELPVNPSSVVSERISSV

[5] = target: mACh, muscarinic acetylcholine receptor; settings: rat; cited from earlier work
5-HT1A receptor = target: T2, 5-HT1A receptor (Rattus norvegicus, UniProt P19327); settings: cited from earlier work
T2 sequence (P19327 1-422): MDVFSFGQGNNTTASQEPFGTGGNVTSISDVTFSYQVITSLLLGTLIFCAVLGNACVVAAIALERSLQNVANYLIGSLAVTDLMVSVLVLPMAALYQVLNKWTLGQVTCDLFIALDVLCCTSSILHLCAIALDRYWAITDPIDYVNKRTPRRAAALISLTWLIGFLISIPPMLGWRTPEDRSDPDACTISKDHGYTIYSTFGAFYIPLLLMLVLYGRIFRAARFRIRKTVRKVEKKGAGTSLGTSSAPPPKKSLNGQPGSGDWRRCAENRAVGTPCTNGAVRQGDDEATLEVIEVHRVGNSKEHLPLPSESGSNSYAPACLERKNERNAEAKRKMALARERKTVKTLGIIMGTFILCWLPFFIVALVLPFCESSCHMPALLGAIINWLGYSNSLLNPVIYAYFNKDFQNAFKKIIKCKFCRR

5-HT2C receptor [6] = target: T3, 5-HT2C receptor (Sus scrofa, UniProt K7GSR7); settings: pig; cited from earlier work
T3 sequence (K7GSR7 1-457): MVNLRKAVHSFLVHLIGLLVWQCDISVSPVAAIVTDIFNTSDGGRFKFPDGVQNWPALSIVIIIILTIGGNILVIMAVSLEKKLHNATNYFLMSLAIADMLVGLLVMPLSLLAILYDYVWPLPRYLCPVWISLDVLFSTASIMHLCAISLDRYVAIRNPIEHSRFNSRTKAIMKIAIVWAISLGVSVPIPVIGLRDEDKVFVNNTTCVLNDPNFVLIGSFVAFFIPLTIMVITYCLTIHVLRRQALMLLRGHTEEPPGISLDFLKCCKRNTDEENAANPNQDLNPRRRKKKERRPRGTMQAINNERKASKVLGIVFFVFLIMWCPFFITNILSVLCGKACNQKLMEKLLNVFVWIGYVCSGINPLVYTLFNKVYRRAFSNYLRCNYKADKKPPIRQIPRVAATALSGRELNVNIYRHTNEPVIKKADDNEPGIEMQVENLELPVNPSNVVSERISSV

α1-adrenoceptor [7] = settings: species for α1 not given; cited from earlier work
[8] = target: D2-S (short form of D2 receptor) (Homo sapiens, UniProt P14416); settings: cited from earlier work
sigma, σ receptor = settings: guinea-pig; cited from earlier work
5-HT7 receptor [9] = target: 5-HT7 receptor (Mus musculus, UniProt P32304); settings: cited from earlier work
5-HT3 receptor = target: T4, 5-HT3 receptor (Mus musculus, UniProt P23979); settings: cited from earlier work
T4 sequence (P23979 24-489): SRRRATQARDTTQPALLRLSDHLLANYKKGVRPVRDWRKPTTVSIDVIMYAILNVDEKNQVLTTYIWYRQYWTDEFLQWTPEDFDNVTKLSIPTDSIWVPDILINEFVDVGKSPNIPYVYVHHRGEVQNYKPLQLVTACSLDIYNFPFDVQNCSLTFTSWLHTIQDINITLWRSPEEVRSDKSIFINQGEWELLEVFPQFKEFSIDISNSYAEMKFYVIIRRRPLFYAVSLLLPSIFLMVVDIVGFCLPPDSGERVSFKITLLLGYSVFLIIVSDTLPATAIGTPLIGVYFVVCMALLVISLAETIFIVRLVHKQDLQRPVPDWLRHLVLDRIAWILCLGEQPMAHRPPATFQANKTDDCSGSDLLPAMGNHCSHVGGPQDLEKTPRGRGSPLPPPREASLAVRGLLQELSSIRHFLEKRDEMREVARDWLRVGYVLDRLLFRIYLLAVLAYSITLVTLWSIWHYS

D4 dopamine receptor = target: T5, D4 dopamine receptor (Homo sapiens, UniProt P21917); settings: human; cited from earlier work
T5 sequence (P21917 1-419): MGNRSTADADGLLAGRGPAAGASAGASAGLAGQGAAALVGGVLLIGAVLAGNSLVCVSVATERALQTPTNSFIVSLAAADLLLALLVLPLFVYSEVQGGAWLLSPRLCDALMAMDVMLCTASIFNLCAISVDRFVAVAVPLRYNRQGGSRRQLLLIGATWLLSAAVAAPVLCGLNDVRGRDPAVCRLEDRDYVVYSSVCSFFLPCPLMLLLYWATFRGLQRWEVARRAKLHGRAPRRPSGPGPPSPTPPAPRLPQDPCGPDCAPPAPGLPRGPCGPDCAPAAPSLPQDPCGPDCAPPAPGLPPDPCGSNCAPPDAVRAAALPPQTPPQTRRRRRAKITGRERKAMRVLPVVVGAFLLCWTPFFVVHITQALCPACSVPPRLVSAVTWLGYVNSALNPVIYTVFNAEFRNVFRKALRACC

α2-adrenoceptor = settings: cited from earlier work
[10] = target: D2-L (long form of D2 receptor) (Homo sapiens, UniProt P14416); settings: cited from earlier work
[11] = design: key: 1-high; 2-medium; 3-low probability; settings: Table 4A; grading of probability from literature reports; cited from earlier work; remark: listed apart in the source
[12] = design: key to Weight Gain: 1-high; 2-medium; 3-low probability; settings: cited from earlier work; for Weight Gain: Table 4A, grading of probability from literature reports
5-HT7 receptor [13] = target: 5-HT7 receptor (Rattus norvegicus, UniProt P32305); settings: cited from earlier work
5-HT6 receptor = 5-HT6 receptor (Rattus norvegicus, UniProt P31388); settings: cited from earlier work
D1 dopamine receptor [14] = target: D1 dopamine receptor (Homo sapiens, UniProt P21728); settings: cited from earlier work
[15] = design: key: 1-high; 2-medium; 3-low probability; settings: Table 4A; grading of probability from literature reports; cited from earlier work; remark: listed apart in the source
D1 dopamine receptor [16] = target: D1 dopamine receptor (Rattus norvegicus, UniProt P18901); settings: cited from earlier work
α1-adrenoceptor [17] = settings: rat; cited from earlier work
[18] = Table 3, calculated from known 5-HT2C/5-HT2A/D2 affinities

D2 receptor, sequence (P14416 whole entry): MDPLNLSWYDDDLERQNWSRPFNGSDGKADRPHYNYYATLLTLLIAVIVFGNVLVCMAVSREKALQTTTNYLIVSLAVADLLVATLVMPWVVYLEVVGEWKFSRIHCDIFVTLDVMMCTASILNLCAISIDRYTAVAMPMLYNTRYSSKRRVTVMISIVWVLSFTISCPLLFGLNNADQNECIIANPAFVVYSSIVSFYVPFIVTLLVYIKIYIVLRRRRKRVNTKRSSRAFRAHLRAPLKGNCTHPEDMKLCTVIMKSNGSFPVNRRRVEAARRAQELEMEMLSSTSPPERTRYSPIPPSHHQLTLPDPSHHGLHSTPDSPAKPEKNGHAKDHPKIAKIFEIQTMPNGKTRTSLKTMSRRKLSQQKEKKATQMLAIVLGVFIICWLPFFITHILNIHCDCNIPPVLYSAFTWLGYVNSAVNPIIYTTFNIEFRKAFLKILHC
5-HT2A receptor, sequence (P28223 whole entry): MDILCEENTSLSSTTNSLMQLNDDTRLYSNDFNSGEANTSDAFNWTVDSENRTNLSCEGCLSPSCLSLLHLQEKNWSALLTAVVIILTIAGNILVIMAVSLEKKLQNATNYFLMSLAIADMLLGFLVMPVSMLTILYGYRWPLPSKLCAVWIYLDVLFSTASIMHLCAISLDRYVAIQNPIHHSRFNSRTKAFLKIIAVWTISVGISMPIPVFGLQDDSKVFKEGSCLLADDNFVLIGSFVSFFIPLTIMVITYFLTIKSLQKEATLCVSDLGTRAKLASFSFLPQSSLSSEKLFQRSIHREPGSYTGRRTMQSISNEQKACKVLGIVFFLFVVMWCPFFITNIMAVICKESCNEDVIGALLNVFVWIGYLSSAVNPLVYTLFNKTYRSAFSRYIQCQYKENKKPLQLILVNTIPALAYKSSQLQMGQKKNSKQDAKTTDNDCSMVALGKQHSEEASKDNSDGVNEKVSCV
5-HT6 receptor, sequence (P31388 whole entry): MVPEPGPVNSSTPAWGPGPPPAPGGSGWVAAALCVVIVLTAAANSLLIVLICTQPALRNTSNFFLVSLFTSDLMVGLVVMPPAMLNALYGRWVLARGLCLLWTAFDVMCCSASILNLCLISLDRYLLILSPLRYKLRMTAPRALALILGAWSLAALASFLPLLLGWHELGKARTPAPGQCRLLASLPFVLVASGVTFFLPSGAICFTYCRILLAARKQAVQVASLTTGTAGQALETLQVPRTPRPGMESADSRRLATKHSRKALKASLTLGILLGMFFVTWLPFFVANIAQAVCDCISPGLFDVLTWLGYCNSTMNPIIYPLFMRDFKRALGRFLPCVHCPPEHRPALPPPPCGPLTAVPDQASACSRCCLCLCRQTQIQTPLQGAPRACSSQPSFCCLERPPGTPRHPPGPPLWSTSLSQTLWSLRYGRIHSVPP
5-HT7 receptor (Rattus norvegicus, UniProt P32305), sequence (P32305 whole entry): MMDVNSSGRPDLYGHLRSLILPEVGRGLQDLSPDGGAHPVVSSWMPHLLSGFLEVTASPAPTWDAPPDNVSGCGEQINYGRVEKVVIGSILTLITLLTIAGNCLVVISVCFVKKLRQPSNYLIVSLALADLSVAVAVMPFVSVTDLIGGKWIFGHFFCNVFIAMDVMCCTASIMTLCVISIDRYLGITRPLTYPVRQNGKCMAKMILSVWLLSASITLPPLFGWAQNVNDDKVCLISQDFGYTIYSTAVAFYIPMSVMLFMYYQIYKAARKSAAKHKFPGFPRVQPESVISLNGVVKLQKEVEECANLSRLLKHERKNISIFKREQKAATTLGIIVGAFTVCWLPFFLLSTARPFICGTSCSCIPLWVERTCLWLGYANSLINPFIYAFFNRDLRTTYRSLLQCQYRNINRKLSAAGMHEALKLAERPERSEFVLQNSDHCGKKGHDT
5-HT7 receptor (Mus musculus, UniProt P32304), sequence (P32304 whole entry): as the sequence (P32305 whole entry) above, with G27R, P39S, L53P, P279S, S438C counted along it
D2-L (long form of D2 receptor), sequence (P14416 whole entry): as the sequence (P14416 whole entry) above
D1 dopamine receptor (Rattus norvegicus, UniProt P18901), sequence (P18901 whole entry): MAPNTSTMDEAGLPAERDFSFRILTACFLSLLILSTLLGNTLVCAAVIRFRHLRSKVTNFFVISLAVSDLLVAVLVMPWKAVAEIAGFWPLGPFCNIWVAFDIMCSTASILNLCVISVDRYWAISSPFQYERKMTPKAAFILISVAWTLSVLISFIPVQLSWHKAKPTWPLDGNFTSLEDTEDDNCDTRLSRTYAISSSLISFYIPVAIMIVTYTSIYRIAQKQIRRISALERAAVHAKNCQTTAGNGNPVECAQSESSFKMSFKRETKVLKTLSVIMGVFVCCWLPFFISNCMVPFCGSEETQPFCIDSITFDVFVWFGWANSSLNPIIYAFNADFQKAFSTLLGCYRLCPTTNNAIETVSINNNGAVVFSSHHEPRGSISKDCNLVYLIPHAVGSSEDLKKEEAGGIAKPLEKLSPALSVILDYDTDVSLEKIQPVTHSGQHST
D2-S (short form of D2 receptor), sequence (P14416 1-414 isoform P14416-2): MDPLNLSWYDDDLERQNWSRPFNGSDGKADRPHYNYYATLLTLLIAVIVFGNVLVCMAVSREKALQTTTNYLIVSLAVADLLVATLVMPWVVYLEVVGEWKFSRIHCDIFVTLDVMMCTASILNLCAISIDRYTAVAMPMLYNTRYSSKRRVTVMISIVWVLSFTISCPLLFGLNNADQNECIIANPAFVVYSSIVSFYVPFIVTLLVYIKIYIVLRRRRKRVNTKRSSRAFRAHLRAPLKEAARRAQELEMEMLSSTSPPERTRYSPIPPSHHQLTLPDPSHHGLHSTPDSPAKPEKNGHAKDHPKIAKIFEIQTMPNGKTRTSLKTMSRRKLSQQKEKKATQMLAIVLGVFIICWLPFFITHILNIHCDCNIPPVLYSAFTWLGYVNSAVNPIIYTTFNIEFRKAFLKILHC
D1 dopamine receptor (Homo sapiens, UniProt P21728), sequence (P21728 whole entry): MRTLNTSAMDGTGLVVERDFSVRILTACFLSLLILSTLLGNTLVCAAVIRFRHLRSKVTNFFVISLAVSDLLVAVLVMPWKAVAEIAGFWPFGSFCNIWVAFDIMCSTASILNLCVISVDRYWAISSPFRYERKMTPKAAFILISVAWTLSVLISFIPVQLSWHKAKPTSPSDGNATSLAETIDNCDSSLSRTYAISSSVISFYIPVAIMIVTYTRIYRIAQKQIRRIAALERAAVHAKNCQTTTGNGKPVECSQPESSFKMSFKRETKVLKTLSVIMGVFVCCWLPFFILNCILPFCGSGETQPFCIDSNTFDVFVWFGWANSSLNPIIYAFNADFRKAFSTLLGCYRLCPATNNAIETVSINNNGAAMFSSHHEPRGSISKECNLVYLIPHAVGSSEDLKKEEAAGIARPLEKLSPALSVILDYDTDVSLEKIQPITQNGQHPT

CCCN1CCC[C@H]2c3c(OC)cccc3OC[C@@H]21.Cl (stereo in doubt) [CGS-18102A, 10-methoxy-4-propyl-1,2,3,4a,5,10b-hexahydro-4H-[1]-benzopyrano[3,4-b]pyridine hydrochloride]
5-HT2A Affinity (5-HT2A receptor): 6.6
D2 Affinity (D2 receptor): 7.4
Formula I Affinity Ratio [1, 18]: 2.06

CN(C)CCCN1c2ccccc2Sc2ccc(Cl)cc21 [Chlorpromazine]
α1 affinity value (−log KD) (α1-adrenoceptor [2]): 8.6^16

CN1CCN(C2=Nc3cc(Cl)ccc3Nc3ccccc32)CC1 [Clozapine]
Extra-pyramidal side effects [3]: 3

CN(C)CCO[C@]1(c2ccccc2)C[C@H]2CC[C@]1(C)C2(C)C.O=C(O)/C=C/C(=O)O [Deramciclane, (1R,2S,4R)-(−)-2-[2-(N,N-dimethylamino)-ethoxy]-2-phenyl-1,7,7-trimethylbicyclo[2.2.1]heptane]
5-HT2A Affinity (5-HT2A receptor): 8
D2 Affinity (D2 receptor): 7
5-HT2C Affinity (5-HT2C receptor [4]): 7.8
Formula I Affinity Ratio [1, 18]: 2.09

O=C1NCN(c2ccccc2)C12CCN(CCCC(c1ccc(F)cc1)c1ccc(F)cc1)CC2 [Fluspirilene]
mACh affinity value (−logKi) [5]: <5.3^6
5-HT1A affinity value (−logKi) (5-HT1A receptor): 7.3^6
5-HT2C affinity value (−logKi) (5-HT2C receptor [6]): 5.7^6
α1 affinity value (−logKi) (α1-adrenoceptor [7]): 7.0^6
D2-S affinity value (−logKi) [8]: 8.9^6
sigma affinity value (−logKi) (sigma, σ receptor): 6.8^6
5-HT7 affinity value (−logKi) (5-HT7 receptor [9]): 7.5^6
5-HT3 affinity value (−logKi) (5-HT3 receptor): <5.3^6
D4 affinity value (−logKi) (D4 dopamine receptor): 8.4^6
α2 affinity value (−logKi) (α2-adrenoceptor; species for α2 not stated): <5.3^6
D2-L affinity value (−logKi) [10]: 9.2^6
(2C/2A) + (2C/D2) ([1]; Table 2, sum of affinity ratios from data of Table 1): 1.33

CN(C)CCSc1nc2ccccc2cc1-c1ccccc1 [ICI-169369]
5-HT2A Affinity (5-HT2A receptor): 7.7
D2 Affinity (D2 receptor): 6.5
5-HT2C Affinity (5-HT2C receptor [4]): 8
Formula I Affinity Ratio [1, 18]: 2.27

CC(C)N1CCN(CCN2CCC(c3cn(-c4ccc(F)cc4)c4cc(Cl)ccc34)CC2)C1=O [LU-26042]
5-HT2A Affinity (5-HT2A receptor): 8.8
D2 Affinity (D2 receptor): 6.9
5-HT2C Affinity (5-HT2C receptor [4]): 7.8
Formula I Affinity Ratio [1]: 2.02

Cc1cc2c(s1)Nc1ccccc1N=C2N1CCN(C)CC1 [Olanzapine]
Increases prolactin levels [11]: 2
Extra-pyramidal side effects [3]: 1-2
Weight Gain [12]: 2
weight gain (in words) ([12]; text b109, literature reports): do cause weight gain

COc1cc(OC)c(C(=O)CCCCN2CCC3(CC2)NC(=O)NC3=O)cc1NS(=O)(=O)c1ccc(C(F)(F)F)cc1 [RS-102221]
5-HT2A Affinity (5-HT2A receptor): 5.8
5-HT2C Affinity (5-HT2C receptor [4]): 8.2
Formula I Affinity Ratio [1, 18]: 2.78

CCN1CCCC1CNC(=O)c1cc(S(N)(=O)=O)ccc1OC (stereo not drawn) [Sulpiride]
5-HT7 affinity value (−logKi) (5-HT7 receptor [13]): <5.3^2
5-HT6 affinity value (−logKi) (5-HT6 receptor): <5.3^2
D1 affinity value (−logKi) (D1 dopamine receptor [14]): <5^9

CSc1ccc2c(c1)N(CCC1CCCCN1C)c1ccccc1S2 (stereo not drawn) [Thioridazine]
D4 affinity value (−logKi) (D4 dopamine receptor): 7.9^12

O=C1Cc2cc(CCN3CCN(c4nsc5ccccc45)CC3)c(Cl)cc2N1 [Ziprasidone]
5-HT7 affinity value (−logKi) (5-HT7 receptor [13]): 7.6^14
5-HT1A affinity value (−logKi) (5-HT1A receptor): 7.9^6
5-HT2C affinity value (−logKi) (5-HT2C receptor [6]): 7.9^6
Increases prolactin levels [11]: 3
5-HT6 affinity value (−logKi) (5-HT6 receptor): 6.9^14
Improvement negative symptoms [15]: 2
sigma affinity value (−logKi) (sigma, σ receptor): <5.3^6
5-HT7 affinity value (−logKi) (5-HT7 receptor [9]): 8.3^6
5-HT3 affinity value (−logKi) (5-HT3 receptor): 5.5^6
D1 affinity value (−logKi) (D1 dopamine receptor [16]): 6.3^14
α2 affinity value (−logKi) (α2-adrenoceptor; no reference given): <6
α1 affinity value (−logKi) (α1-adrenoceptor [17]): 8.0^14
Extra-pyramidal side effects [3]: 2
Weight Gain [12]: 3
